Data from US7683181B2, “Cyclic N-[1,3,4]-thiadiazol-2-yl-benzene sulfonamides, pharmaceutical compositions and methods for the therapeutic use thereof” (Sanofi-aventis, priority 2005, dated 2010).

Key:
human PPARdelta = target: T1, human PPARdelta (Homo sapiens, UniProt Q03181); assay: cellular PPARdelta assay (stably transfected HEK luciferase reporter cell line); assay type: cell-based; settings: GR-GAL4-humanPPARdelta-LBD
T1 construct: amino acids S139-Y441; expressed in transfected cells
T1 sequence (Q03181 139-441): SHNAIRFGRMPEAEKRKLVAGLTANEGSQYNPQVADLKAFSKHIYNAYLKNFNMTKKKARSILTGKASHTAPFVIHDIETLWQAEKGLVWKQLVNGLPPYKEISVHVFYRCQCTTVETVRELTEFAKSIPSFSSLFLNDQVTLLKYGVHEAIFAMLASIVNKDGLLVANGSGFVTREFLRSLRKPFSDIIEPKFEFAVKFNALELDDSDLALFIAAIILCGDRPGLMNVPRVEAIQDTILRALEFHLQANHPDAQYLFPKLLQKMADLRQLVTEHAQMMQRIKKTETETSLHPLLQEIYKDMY
Experimental: The assay plates are incubated in an incubator at 37° C. and 5% CO2 for 24 h. […]
The raw data from the luminometer are transferred into a Microsoft Excel file. Dose-effect plots and EC50 values of PPAR agonists are calculated using the XL.Fit program as specified by the manufacturer (IDBS).
The potency of substances which bind to human PPARdelta and activate it in an agonistic manner was analyzed through the determination of the EC50 values of PPAR agonists in the cellular PPARdelta assay using a stably transfected HEK cell line (HEK=human embryo kidney) which is referred to here as PPARdelta reporter cell line. In analogy to the assay described for PPARalpha, the PPARdelta reporter cell line also contains two genetic elements, a luciferase reporter element (pdeltaM-GAL4-Luc-Zeo) and a PPARdelta fusion protein (GR-GAL4-humanPPARdelta-LBD) which mediates expression of the luciferase reporter element depending on a PPARdelta ligand. The stably and constitutively expressed fusion protein GR-GAL4-humanPPARdelta-LBD binds in the cell nucleus of the PPARdelta reporter cell line via the GAL4 protein portion to the GAL4 DNA binding motifs 5′-upstream of the luciferase reporter element which is stably integrated in the genome of the cell line. There is only little expression of the luciferase reporter gene in the absence of a PPARdelta ligand if fatty acid-depleted fetal calf serum (cs-FCS) is used in the assay. PPARdelta ligands bind and activate the PPARdelta fusion protein and thereby stimulate expression of the luciferase reporter gene. The luciferase which is formed can be detected by means of chemiluminescence via an appropriate substrate.
The production of the stable PPARdelta reporter cell line is based on a stable HEK-cell clone which was stably transfected with a luciferase reporter element. This step was already described above in the section “construction of the PPARalpha reporter cell line”. […]
The activity of PPARdelta agonists is determined in a 3-day assay in exact analogy to the procedure already described for the PPARalpha reporter cell line except that the PPARdelta reporter cell line and a specific PPARdelta agonist was used as a standard to control test efficacy.

human PPARgamma = target: T2, human PPARgamma (Homo sapiens, UniProt P37231); assay: cellular PPARgamma assay (transiently transfected HEK cells, luciferase reporter); assay type: cell-based; settings: GAL4-humanPPARgammaLBD
T2 construct: amino acids I152-Y475; expressed in transfected cells; host or cells: HEK cells, transient transfection of pcDNA3-GAL4-humanPPARgammaLBD
T2 sequence (P37231 with tags, fused parts or gaps isoform P37231-2 limits assumed): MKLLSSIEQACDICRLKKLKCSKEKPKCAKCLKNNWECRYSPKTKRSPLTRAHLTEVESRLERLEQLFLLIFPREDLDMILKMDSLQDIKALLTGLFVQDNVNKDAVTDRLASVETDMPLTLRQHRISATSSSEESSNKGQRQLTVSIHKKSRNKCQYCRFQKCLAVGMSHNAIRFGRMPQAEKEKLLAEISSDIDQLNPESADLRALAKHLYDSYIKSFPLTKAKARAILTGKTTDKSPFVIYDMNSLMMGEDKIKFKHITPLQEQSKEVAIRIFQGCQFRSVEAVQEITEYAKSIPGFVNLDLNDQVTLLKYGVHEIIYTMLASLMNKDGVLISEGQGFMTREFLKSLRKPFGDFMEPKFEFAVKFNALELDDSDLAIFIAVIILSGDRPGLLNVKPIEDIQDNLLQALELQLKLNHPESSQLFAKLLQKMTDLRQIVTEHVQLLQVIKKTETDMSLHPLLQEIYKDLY
Description: Determination of EC50 values of PPAR agonists in the cellular PPARgamma assay
A transient transfection system is employed to determine the cellular PPARgamma activity of PPAR agonists. It is based on the use of a luciferase reporter plasmid (pGL3basic-5×GAL4-TK) and of a PPARgamma expression plasmid (pcDNA3-GAL4-humanPPARgammaLBD). Both plasmids are transiently transfected into human embryonic kidney cells (HEK cells). There is then expression in these cells of the fusion protein GAL4-humanPPARgammaLBD which binds to the GAL4 binding sites of the reporter plasmid. In the presence of a PPARgamma-active ligand, the activated fusion protein GAL4-humanPPARgammaLBD induces expression of the luciferase reporter gene, which can be detected in the form of a chemiluminescence signal after addition of a luciferase substrate. As a difference from the stably transfected PPARalpha reporter cell line, in the cellular PPARgamma assay the two components (luciferase reporter plasmid and PPARgamma expression plasmid) are transiently transfected into HEK cells because stable and permanent expression of the PPARgamma fusion protein is cytotoxic.
The luciferase reporter plasmid pGL3basic-5×GAL4-TK is based on the vector pGL3basic from Promega. The reporter plasmid is prepared by cloning five binding sites of the yeast transcription factor GAL4 (each binding site with the sequence 5′-CTCGGAGGACAGTACTCCG-3′), together with a 160 bp-long thymidine kinase promoter section (Genbank Accession #AF027128) 5′-upstream into pGL3basic. 3′-downstream of the thymidine kinase promoter is the complete luciferase gene from Photinus pyralis (Genbank Accession #M15077) which is already a constituent of the plasmid pGL3basic used. The cloning and sequencing of the reporter plasmid pGL3basic-5×GAL4-TK took place in analogy to the description in Sambrook J. et. al. (Molecular cloning, Cold Spring Harbor Laboratory Press, 1989).
The PPARgamma expression plasmid pcDNA3-GAL4-humanPPARgammaLBD was prepared by first cloning the cDNA coding for amino acids 1-147 of the yeast transcription factor GAL4 (Genbank Accession #P04386) into the plasmid pcDNA3 (from Invitrogen) 3′-downstream of the cytomegalovirus promoter. Subsequently, the cDNA of the ligand-binding domain (LBD) of the human PPARgamma receptor (amino acids I152-Y475; Accession #g1480099) 3′-downstream of the GAL4 DNA binding domain. Cloning and sequencing of the PPARgamma expression plasmid pcDNA3-GAL4-humanPPARgammaLBD again took place in analogy to the description in Sambrook J. et. al. (Molecular cloning, Cold Spring Harbor Laboratory Press, 1989). […]
The activity of PPARgamma agonists is determined in a 4-day assay which is described below. […]

PPARdelta [1] = settings: diabetic animal model; cited from earlier work
PPARdelta [2] = settings: obese, insulin resistant rhesus monkeys; cited from earlier work

SMILES	EC50 (human PPARdelta) [nM]	EC50 (human PPARgamma) [nM]	also measured
CCOc1cc(C(F)(F)F)ccc1C(=O)N[C@@H]1CCC[C@H]1c1ccc(S(=O)(=O)Nc2nnc(C(C)C)s2)cc1 (relative stereo) [Example 2, 2-Ethoxy-N-{trans-2-[4-(5-isopropyl-[1,3,4]thiadiazol-2-ylsulfamoyl)-phenyl]-cyclopentyl}-4-trifluoromethyl-benzamide]	26	430	
CCOc1cc(C(F)(F)F)ccc1C(=O)N[C@@H]1CCC[C@@H]1c1ccc(S(=O)(=O)Nc2nnc(C(C)C)s2)cc1 (relative stereo) [Example 3, 2-Ethoxy-N-{cis-2-[4-(5-isopropyl-[1,3,4]thiadiazol-2-ylsulfamoyl)-phenyl]-cyclopentyl}-4-trifluoromethyl-benzamide]	240	230	
CCCc1c(OCCCOc2ccc(OCC(=O)O)cc2)ccc(C(C)=O)c1O [Example L-165041]			plasma cholesterol (PPARdelta [1]): raises
CCOc1cc(C(F)(F)F)ccc1C(=O)NCC1(c2ccc(S(=O)(=O)Nc3nnc(C(C)C)s3)cc2)CCCCC1 [Example 1, 2-Ethoxy-N-{1-[4-(5-isopropyl-[1,3,4]thiadiazol-2-ylsulfamoyl)-phenyl]-cyclohexylmethyl}-4-trifluoromethyl-benzamide]	120	> 10000	
CCOc1cc(C(F)(F)F)ccc1C(=O)NCC1(c2ccc(S(=O)(=O)Nc3nnc(C(C)C)s3)cc2)CCCC1 [Example 4, 2-Ethoxy-N-{1-[4-(5-isopropyl-[1,3,4]thiadiazol-2-ylsulfamoyl)-phenyl]-cyclopentylmethyl}-4-trifluoromethyl-benzamide]	21	7	
Cc1cc(SCc2sc(-c3ccc(C(F)(F)F)cc3)nc2C)ccc1OCC(=O)O [GW501516]			HDL-cholesterol (PPARdelta [2]): raises; insulin levels (PPARdelta [2]): decreases; plasma LDL-cholesterol (PPARdelta [2]): decreases; triglycerides (PPARdelta [2]): decreases
